Source: patent US20250129083A1, “IMIDAZOTETRAZINE COMPOUNDS AND TREATMENT OF TMZ-RESISTANT CANCERS” (THE BOARD OF TRUSTEES OF THE UNIVERSITY OF ILLINOIS, priority 2022, published 2025)
Like-named read-outs stand apart in the source and are kept apart here.

Columns and labels:
T98G GBM cell line = assay: Cell viability assay (Alamar Blue, 7 days), T98G; format: cell-based, human
Experimental: (§1) Cell Culture and Reagents. All cell lines were grown in a 37° C., 5% CO2, humidified environment, in media containing 1% penicillin/streptomycin. Stable cell line generation of GL261 MGMT+ was purchased from Creative Biogene. Cell culture conditions are as follows: cell lines U87, T98G, and RKO were grown in EMEM with 10% FBS. D54, GL261, GL261 MGMT+, and U118MG cell lines were grown in DMEM with 10% FBS. HCT116 cells were grown in RMPI with 10% FBS. D341 Med cells were grown in EMEM with 20% FBS. Temozolomide (TMZ) was purchased from AK Scientific. TMZ analogues were synthesized as described below. Compounds were dissolved in DMSO (1% final concentration, Fisher Chemical) for cell culture studies.
(§2) Cell Viability Assays. Cells were harvested, seeded in a 96-well plate and allowed to adhere. After three hours, compound was added to each well in DMSO (1% final concentration). Cells were incubated for seven days (unless otherwise noted) before viability was assessed by the Alamar Blue assay. Raptinal (20 μM) was used as a dead control.

[1] = test system: linearized pBR322 plasmid DNA; details: purified linearized DNA, 15 hours at 37° C.
Excerpt: The DNA was subsequently denatured and the sample was eluted on a 1% agarose gel. Interstrand DNA cross-linkers like cisplatin prevent the full denaturation of double-stranded DNA, while DNA alkylating agents like MMS or TMZ cause DNA streaking due to shorter DNA fragments that are formed upon alkaline denaturation of abundantly alkylated DNA.
Procedure was adapted from Healy et al. (61) In brief, pBR322 plasmid DNA was linearized with EcoRI (New England BioLabs) in NEB EcoRI buffer (New England BioLabs) according to the manufacturer's instructions. The cut plasmid DNA was purified using a PCR cleanup kit (QIAquick PCR Purification Kit, Qiagen) and eluted into DNA buffer (10 mM Tris Cl, pH 8.5). The concentration of linearized DNA was quantified by measuring absorbance on a NanoDrop 2000 UV-Vis Spectrophotometer (Thermo Fisher). For each reaction, compound (in DMSO, 5% v/v) was added to DNA (150 ng) in DNA buffer (total volume 10 L) and incubated at 37° C. for the indicated time. Upon completion, 30 L DNA denaturation buffer (60 mg/mL sucrose, 10 mg/mL NaOH, and 0.4 mg/mL bromophenol blue in water) was added to each sample (the same buffer without NaOH was added to non-denatured controls). […] Gels were imaged using a Gel Dox XR+ system (Bio-Rad).

U87 GBM cell line = assay: Cell viability assay (Alamar Blue, 7 days), U87; format: cell-based, human
Experimental: as §1, §2
Plated 1500 c/w for GL261; 600 c/w for U87; 600 c/w for U118MG; 1500 c/w for GL261 MGMT+ Incubated ovn and added 1 μL of compound in DMSO the next day. Incubated over 7 days; added Alamar Blue to assess cell viability and used 10 μM Raptinal as dead control. Error is SEM, n=3.

[2] = Hepatic metabolism: stability in mouse liver microsomes; format: in vitro ADME; details: for Stability (2 h, with MLM): percentage remaining relative to t0, mouse liver microsomes, SEM, n ≥ 2; for Stability (2 h, no MLM): percentage remaining, microsomes replaced with PBS
[3] = Hydrolytic stability studies; format: physicochemical; details: PBS; for Hydrolytic stability: percentage of prodrug remaining after 2 hours: pH 7.4, 37° C., HPLC; for half-life at 100 μM: 37° C.
Experimental: Hydrolytic Stability Studies. Compound (100 μM) was incubated at 37° C. in PBS at pH 7.4 (unless otherwise noted). At the indicated time point, an aliquot was collected and analyzed by HPLC. Compound peaks were integrated and compared to the integration at to calculate the percentage of prodrug remaining.

in vivo = details: CD-1 IGS, mouse, brain and serum, iv, 25 mg/kg
Experimental: Biodistribution and Toxicity Studies. […] Brain tissue and blood were collected from each mouse and immediately acidified to prevent prodrug degradation. The concentration of each compound in the serum (FIG. 4A) and brain (FIG. 4B) were quantified by LC-MS/MS.
CD-1 IGS mice were administered compound in 5% DMSO, 10% Tween-20, and 85% SPE-PCD in sterile water (30% w/v) at 25 mg/kg via lateral tail vein injection. Fifteen minutes post injection, mice were sacrificed and blood was collected by lacerating the right auricle with iris scissors. An 18 gauge angiocatheter was inserted through the left ventricle, and all residual circulatory volume was removed by perfusing 0.9% saline solution via an analog peristaltic pump. Blood samples were immediately centrifuged at 13,000 rcf for five minutes and the supernatant collected and acidified with 8.5% aqueous H3PO4. Brains were harvested from the cranial vault, acidified with 0.3% aqueous H3PO4 and flash frozen. Homogenized brain samples were centrifuged twice at 13,000 rcf for ten minutes and supernatant and tissue debris were separated. The resultant supernatant was analyzed, along with plasma, by LC-MS/MS to determine compound concentrations.

[4] = test system: expanded panel of GBM cell lines with or without MGMT expression; assay: Cell viability in expanded panel of GBM cell lines; format: cell-based; details: 168 h; all cell lines, with or without MGMT; 7 days; read-out: IC50 values across expanded panel of GBM cell lines
Experimental: FIG. 1A-C. Selection and evaluation of MGMT-independent imidazotetrazines. (A) IC50 values (M, 7 days) of TMZ and compound 10 in an expanded panel of GBM cell lines. Cell viability was assessed via the Alamar Blue assay, n≥3, error is SEM. (B) Hydrolytic stability of TMZ at pH 7, 7.4, and 8. Percentage of prodrug remaining was quantified by HPLC, n≥2. (C) Hydrolytic stability of compound 10 at pH 7, 7.4, and 8. Percentage of prodrug remaining was quantified by HPLC, n≥2.
FIG. 2A-F. (A) 7 day IC50 values (M) of compound 10 and CPZ in an expanded panel of GBM cell lines. Cell viability was assessed via the Alamar Blue assay, n≥3, error is SEM. (B-E) 7 day dose-response curves of TMZ and CPZ in cell lines with variable MGMT and MMR status. Error is SEM, n≥3. (F) Killing kinetics of CPZ compared to TMZ in the U87 cell line. Cells were treated with compound once and viability was assessed every 24 hours via Alamar Blue assay. Error is SEM, n≥2.
as §2

[5] = Homo sapiens, T98G, 168 h, MGMT (+), Alamar Blue, error SEM, n ≥ 3, read-out: Seven-day IC50, T98G
[6] = Homo sapiens, 168 h, MGMT (−), Alamar Blue, error SEM, n ≥ 3, read-out: Seven-day IC50, U87
[7] = Homo sapiens, T98G, 168 h, MGMT (+) MMR (+), read-out: Activity, T98G
[8] = Homo sapiens, 168 h, MGMT (−) MMR (+), 600 c/w, SEM, n=3, read-out: Activity, U87
[9] = MGMT (+), Alamar Blue, error SEM, n ≥ 3, read-out: Seven-day IC50, T98G

C=CCn1nnc2c(C(N)=O)ncn2c1=O [Compound 9, 3-allyl-4-oxo-3,4-dihydroimidazo[5,1-d][1,2,3,5]tetrazine-8-carboxamide]
IC50 (T98G GBM cell line; [5]): 320 ± 10 µM | DNA alkylation (streaking on gel) [1]: No evidence of DNA alkylation | IC50 (U87 GBM cell line; [6]): 220 ± 60 µM

NC(=O)c1ncn2c(=O)n(CNC(=O)c3ccccc3)nnc12 [Compound 12, 3-(benzamidomethyl)-4-oxo-3,4-dihydroimidazo[5,1-d][1,2,3,5]tetrazine-8-carboxamide]
IC50 (T98G GBM cell line; [5]): 580 ± 100 µM | IC50 (U87 GBM cell line; [6]): 240 ± 20 µM

CC(C)(C)n1nnc2c(C(N)=O)ncn2c1=O [Compound 5, 3-(tert-butyl)-4-oxo-3,4-dihydroimidazo[5,1-d][1,2,3,5]tetrazine-8-carboxamide]
IC50 (T98G GBM cell line; [5]): > 1000 µM | IC50 (U87 GBM cell line; [6]): 570 ± 30 µM

CC#CCn1nnc2c(C(N)=O)ncn2c1=O [But]
Stability (2 h, with MLM) [2]: 89 ± 3% | Stability (2 h, no MLM) [2]: 85 ± 1%

CCCn1nnc2c(C(N)=O)ncn2c1=O [Compound 3, 4-oxo-3-propyl-3,4-dihydroimidazo[5,1-d][1,2,3,5]tetrazine-8-carboxamide]
IC50 (T98G GBM cell line; [5]): > 1000 µM | DNA alkylation (streaking on gel) [1]: No evidence of DNA alkylation | IC50 (U87 GBM cell line; [6]): > 1000 µM

C#CCn1nnc2c(C(=O)NC)ncn2c1=O [Compound 16, N-methyl-4-oxo-3-(prop-2-yn-1-yl)-3,4-dihydroimidazo[5,1-d][1,2,3,5]tetrazine-8-carboxamide]
Hydrolytic stability: percentage of prodrug remaining after 2 hours [3]: 18% | IC50 (T98G GBM cell line; [7]): 87 ± 7 µM | IC50 (U87 GBM cell line; [8]): 40 ± 20 µM

CC(C)(C)Cn1nnc2c(C(N)=O)ncn2c1=O [Compound 6, 3-neopentyl-4-oxo-3,4-dihydroimidazo[5,1-d][1,2,3,5]tetrazine-8-carboxamide]
IC50 (T98G GBM cell line; [5]): > 1000 µM | IC50 (U87 GBM cell line; [6]): > 1000 µM

CN(C)C(=O)c1ncn2c(=O)n(C)nnc12 [N,N-DiMe-TMZ, reference compound]
Stability (2 h, with MLM) [2]: 81 ± 2% | Stability (2 h, no MLM) [2]: 92 ± 3%

C#CCn1nnc2c(C(=O)N(C)C)ncn2c1=O [Compound 17, N,N-dimethyl-4-oxo-3-(prop-2-yn-1-yl)-3,4-dihydroimidazo[5,1-d][1,2,3,5]tetrazine-8-carboxamide]
Hydrolytic stability: percentage of prodrug remaining after 2 hours [3]: 27% | IC50 (T98G GBM cell line; [7]): 40 ± 5 µM | IC50 (U87 GBM cell line; [8]): 20 ± 5 µM

CCn1nnc2c(C(N)=O)ncn2c1=O [Compound 2, 3-ethyl-4-oxo-3,4-dihydroimidazo[5,1-d][1,2,3,5]tetrazine-8-carboxamide]
IC50 (T98G GBM cell line; [5]): > 1000 µM | IC50 (U87 GBM cell line; [6]): 470 µM

C#CCn1nnc2c(C(N)=O)ncn2c1=O [Compound 10, 4-oxo-3-(prop-2-yn-1-yl)-3,4-dihydroimidazo[5,1-d][1,2,3,5]tetrazine-8-carboxamide]
Kp at 15 min (in vivo): 0.06 ± 0.01 | half-life at 100 μM ([3]; pH 7, calculated from hydrolytic stability data, read-out: Half-life, pH 7): 97 ± 5 min | Hydrolytic stability: percentage of prodrug remaining after 2 hours [3]: 8% | half-life at 100 μM ([3]; pH 7.4, calculated from hydrolytic stability data, read-out: Half-life, pH 7.4): ~30 min | half-life at 100 μM ([3]; pH 8, calculated from hydrolytic stability data, read-out: Half-life, pH 8): 15 ± 1 min | IC50 (T98G GBM cell line; [5]): 77 µM | IC50 (U87 GBM cell line; [6]): 29 µM | IC50 [4]: < 100 µM

NC(=O)c1ncn2c(=O)n(CCCl)nnc12 [MTZ, 3-(2-chloroethyl)-4-oxo-3,4-dihydroimidazo[5,1-d][1,2,3,5]tetrazine-8-carboxamide, reference compound]
IC50 (T98G GBM cell line; [5]): 85 ± 9 µM | IC50 (U87 GBM cell line; [6]): 30 µM

NC(=O)c1ncn2c(=O)[nH]nnc12 [Compound 1, 4-oxo-3,4-dihydroimidazo[5,1-d][1,2,3,5]tetrazine-8-carboxamide]
IC50 (T98G GBM cell line; [5]): > 1000 µM | IC50 (U87 GBM cell line; [6]): > 1000 µM

CC#CCn1nnc2c(C(N)=O)ncn2c1=O [Compound 19, 3-(but-2-yn-1-yl)-4-oxo-3,4-dihydroimidazo[5,1-d][1,2,3,5]tetrazine-8-carboxamide]
IC50 (T98G GBM cell line; [5]): 110 µM | DNA alkylation (streaking on gel) [1]: Trace DNA alkylation | DNA interstrand cross-linking [1]: definitively absent | IC50 (U87 GBM cell line; [6]): 37 µM

COc1ccc(-n2nnc3c(C(N)=O)ncn3c2=O)cc1 [Compound 7, 3-(4-methoxyphenyl)-4-oxo-3,4-dihydroimidazo[5,1-d][1,2,3,S]tetrazine-8-carboxamide]
IC50 (T98G GBM cell line; [5]): < 100 µM | IC50 (T98G GBM cell line; [9]): 60 ± 10 µM

NC(=O)c1ncn2c(=O)n(COc3ccccc3)nnc12 [Compound 11, 4-oxo-3-(phenoxymethyl)-3,4-dihydroimidazo[5,1-d][1,2,3,5]tetrazine-8-carboxamide]
IC50 (T98G GBM cell line; [5]): < 40 µM | IC50 (T98G GBM cell line; [9]): 35 ± 1 µM | IC50 (U87 GBM cell line; [6]): < 40 µM | IC50 (U87 GBM cell line; MGMT (−), Alamar Blue, error SEM, n ≥ 3, read-out: Seven-day IC50, U87): 21 ± 3 µM

C=CC=O [acrolein, reference compound]
DNA alkylation (streaking on gel) [1]: no evidence of alkylation | DNA interstrand cross-linking [1]: interstrand cross-linking

CC(C)n1nnc2c(C(N)=O)ncn2c1=O [Compound 4, 3-isopropyl-4-oxo-3,4-dihydroimidazo[5,1-d][1,2,3,5]tetrazine-8-carboxamide]
IC50 (T98G GBM cell line; [5]): > 1000 µM | IC50 (U87 GBM cell line; [6]): > 1000 µM
